Values quoted from earlier work in patent US20060188579A1, “Novel process” (priority 2003, published 2006).

Conditions: particles produced by the method of WO00/38811; lowest value ('down to')

dv(0.5): 1.64 μm
SMILES: Nc1cnc(-c2cc(Cl)cc(Cl)c2Cl)c(N)n1 [2,6-diamino-3-(2,3,5-trichlorophenyl)pyrazine]
